Measurements as given in article PMC7730235, “Discovery of a Novel Class of Covalent Dual Inhibitors Targeting the Protein Kinases BMX and BTK” (International Journal of Molecular Sciences, 2020).
One block for each molecule: values may come before it.

Key:
[1] = target: T1, JAK3 (Homo sapiens, UniProt P52333); assay: Radiometric kinase assay (Reaction Biology HotSpot); assay type: biochemical; settings: for JAK3 IC50 of nonreactive analogs (not shown): in words, data not shown
T1 construct: purchased Reaction Biology Corporation
T1 sequence (P52333 1-1124): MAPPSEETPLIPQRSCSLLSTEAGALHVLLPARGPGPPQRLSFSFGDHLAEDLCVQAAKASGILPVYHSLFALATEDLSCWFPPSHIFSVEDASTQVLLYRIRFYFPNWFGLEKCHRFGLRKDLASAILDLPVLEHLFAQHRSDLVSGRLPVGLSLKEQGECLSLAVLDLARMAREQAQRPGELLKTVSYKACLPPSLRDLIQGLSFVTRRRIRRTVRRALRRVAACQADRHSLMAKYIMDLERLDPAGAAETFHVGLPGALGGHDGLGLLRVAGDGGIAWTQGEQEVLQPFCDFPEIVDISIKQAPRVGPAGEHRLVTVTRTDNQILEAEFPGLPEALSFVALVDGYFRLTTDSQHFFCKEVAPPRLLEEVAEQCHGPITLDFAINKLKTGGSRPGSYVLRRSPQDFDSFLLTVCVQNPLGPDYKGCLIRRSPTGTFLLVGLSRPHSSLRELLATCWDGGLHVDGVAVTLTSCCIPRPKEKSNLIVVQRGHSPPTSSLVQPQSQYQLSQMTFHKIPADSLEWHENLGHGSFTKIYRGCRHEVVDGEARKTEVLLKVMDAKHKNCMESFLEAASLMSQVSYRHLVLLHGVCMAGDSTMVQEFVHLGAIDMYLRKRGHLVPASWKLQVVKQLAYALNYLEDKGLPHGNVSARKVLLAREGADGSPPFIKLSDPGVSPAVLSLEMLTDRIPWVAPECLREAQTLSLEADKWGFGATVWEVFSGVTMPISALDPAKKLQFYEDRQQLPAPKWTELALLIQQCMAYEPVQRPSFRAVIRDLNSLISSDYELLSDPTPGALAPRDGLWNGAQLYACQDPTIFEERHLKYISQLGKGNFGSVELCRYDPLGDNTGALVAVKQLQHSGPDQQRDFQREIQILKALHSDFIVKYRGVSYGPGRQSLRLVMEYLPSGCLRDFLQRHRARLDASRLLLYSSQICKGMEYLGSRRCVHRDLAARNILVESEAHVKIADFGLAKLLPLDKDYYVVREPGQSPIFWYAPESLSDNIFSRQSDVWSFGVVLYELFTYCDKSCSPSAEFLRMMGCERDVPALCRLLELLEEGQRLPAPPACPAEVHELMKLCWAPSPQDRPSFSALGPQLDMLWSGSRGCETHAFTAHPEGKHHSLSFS
Procedure: (§1) If not mentioned differently, in vitro profiling of compounds was performed at Reaction Biology Corporation using the HotSpot™ assay platform.

[2] = target: T2, Full length BMX (C-terminal NanoLuc fusion) (Homo sapiens, UniProt P51813); assay: Cellular NanoBRET target engagement assay in HEK293T cells; assay type: cell-based; settings: 0.5 µM Tracer K4, 2 h incubation
T2 construct: Full length BMX and BTK was cloned into pFC32K; expressed in transfected cells; host or cells: HEK293T
T2 sequence (P51813 1-675): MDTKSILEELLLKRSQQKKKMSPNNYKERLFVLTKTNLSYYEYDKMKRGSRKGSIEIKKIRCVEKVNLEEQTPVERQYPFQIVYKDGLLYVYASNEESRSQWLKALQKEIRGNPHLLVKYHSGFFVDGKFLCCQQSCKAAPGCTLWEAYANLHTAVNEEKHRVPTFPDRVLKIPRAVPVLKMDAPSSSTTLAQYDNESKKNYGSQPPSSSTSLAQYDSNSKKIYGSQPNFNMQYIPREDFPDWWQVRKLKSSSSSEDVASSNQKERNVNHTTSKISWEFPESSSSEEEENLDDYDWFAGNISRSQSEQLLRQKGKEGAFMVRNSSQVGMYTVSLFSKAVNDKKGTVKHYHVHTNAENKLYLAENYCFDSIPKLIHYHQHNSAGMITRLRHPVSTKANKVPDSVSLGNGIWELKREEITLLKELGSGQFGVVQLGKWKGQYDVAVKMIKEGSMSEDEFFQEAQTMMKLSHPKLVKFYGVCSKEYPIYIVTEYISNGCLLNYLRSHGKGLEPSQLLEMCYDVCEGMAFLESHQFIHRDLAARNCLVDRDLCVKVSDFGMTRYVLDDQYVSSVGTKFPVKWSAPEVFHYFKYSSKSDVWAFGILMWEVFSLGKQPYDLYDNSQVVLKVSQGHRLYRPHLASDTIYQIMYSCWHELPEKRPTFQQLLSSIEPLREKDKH
Procedure: (§2) Full length BMX and BTK was cloned into pFC32K (Promega, Madison, WI, USA) for expression of a C-terminal NanoLuc fusion. The plasmids were transfected into HEK293T cells cultured in DMEM (Gibco, Waltham, MA, USA) supplemented with 10% fetal bovine serum (Gibco, Waltham, MA, USA) and Penicillin/Streptamycin (Gibco, Waltham, MA, USA). NanoBRET assays were performed using the protocol published previously. Briefly, after transfection and 20 h incubation cells were harvested and subsequently resuspended in OptiMEM (Gibco, Waltham, MA, USA). Cells were aliquoted onto […] (Greiner, Kremsmünster, Austria), and inhibitors as well as 0.5 µM Tracer K4 (Promega) for BMX or 0.5 µM Tracer K5 (Promega, Madison, WI, USA) for BTK were added using an ECHO acoustic dispenser. The plates were incubated at 37 °C with 5% CO2 for 2 h prior to the addition of both NanoBRET NanoGlo substrate (Promega, Madison, WI, USA) and extracellular NanoLuc inhibitor. BRET luminescence (450 nm for donor emission and 610 nm for BRET signal) was measured using PHERAstar FSX plate reader (BMG Labtech, Ortenberg, Germany). Milli-BRET units (mBU) were calculated as a ratio between BRET signal and the overall measured luminescence. A dose–response fitting was applied and IC50 values were calculated using the Prism software. […] Experiments were performed as tripicates and repeated at least three times.

[3] = target: T3, Full length BTK (C-terminal NanoLuc fusion) (Homo sapiens, UniProt Q06187); assay: as above; assay type: cell-based; settings: 0.5 µM Tracer K5, 2 h incubation
T3 construct: Full length BMX and BTK was cloned into pFC32K; expressed in transfected cells; host or cells: HEK293T
T3 sequence (Q06187 whole entry, the tested form may be a part): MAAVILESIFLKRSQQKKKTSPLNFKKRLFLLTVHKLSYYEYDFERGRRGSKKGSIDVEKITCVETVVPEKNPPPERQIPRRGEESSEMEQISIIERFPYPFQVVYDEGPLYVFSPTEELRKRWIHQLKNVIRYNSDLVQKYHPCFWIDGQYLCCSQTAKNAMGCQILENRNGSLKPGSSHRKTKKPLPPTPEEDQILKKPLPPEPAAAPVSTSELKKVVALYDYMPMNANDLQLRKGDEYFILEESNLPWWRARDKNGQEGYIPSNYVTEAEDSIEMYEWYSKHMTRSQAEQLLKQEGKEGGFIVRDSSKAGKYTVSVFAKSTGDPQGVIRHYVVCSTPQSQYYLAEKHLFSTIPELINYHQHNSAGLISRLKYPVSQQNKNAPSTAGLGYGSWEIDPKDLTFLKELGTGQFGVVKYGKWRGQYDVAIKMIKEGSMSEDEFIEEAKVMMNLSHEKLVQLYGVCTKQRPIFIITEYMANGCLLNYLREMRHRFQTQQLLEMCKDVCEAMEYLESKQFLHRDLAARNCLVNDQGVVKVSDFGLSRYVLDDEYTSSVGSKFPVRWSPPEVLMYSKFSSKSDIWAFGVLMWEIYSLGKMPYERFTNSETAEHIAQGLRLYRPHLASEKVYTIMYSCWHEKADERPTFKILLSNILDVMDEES
Procedure: as §2

[4] = target: T4, kinase domain of BMX (Homo sapiens, UniProt P51813); assay: Mass spectrometric investigation of covalent binding to BMX (ESI-TOF); settings: 4 °C; for covalent labeling of BMX (in words): 1.5-fold molar excess, complete labeling refers to 30 min
T4 construct: The kinase domains of JAK3 and BMX at 2 μM
Procedure: The kinase domain of BMX was diluted to 0.05 mM with buffer containing 20 mM Tris pH 8.0, 200 mM NaCl, 0.5 mM TCEP (pH 7.0) and was subsequently mixed with 0.075 mM inhibitors (ratio of protein to inhibitor of 1:1.5). The mixture was incubated at 4°C. The samples were taken at different time points, the reaction stopped by diluting the sample with a 200-fold excess of 1% formic acid. The denatured protein and the adducts were assessed using electrospray time-of-flight (ESI-TOF) mass spectrometry.

[5] = target: T4, kinase domain of BMX; assay: Thermal shift (ΔTm) assay; assay type: binding; settings: 2 μM kinase domain, 10 μM inhibitor; mean ± SD of at least three measurements
Procedure: (§3) The kinase domains of JAK3 and BMX at 2 μM were mixed with the inhibitors at 10 μM, and subsequently SyPRO orange dye (Invitrogen Carlsbad, CA, USA) was added. The thermal shift assay and data evaluation were performed as described previously using a Real-Time PCR Mx3005p machine (Stratagene, La Jolla, CA, USA).

[6] = target: T5, kinase domain of JAK3 (Homo sapiens, UniProt P52333); assay: Thermal shift (ΔTm) assay; assay type: binding; settings: 2 μM kinase domain, 10 μM inhibitor; mean ± SD of at least three measurements
T5 construct: The kinase domains of JAK3 and BMX at 2 μM; made in house
Procedure: as §3

[7] = target: T6, BMX (Homo sapiens, UniProt P51813); assay: Radiometric kinase assay (Reaction Biology HotSpot); assay type: biochemical; settings: radiometric HotSpot, five-dose singlicate, [ATP] = 10 μM
T6 construct: purchased Reaction Biology Corporation
T6 sequence (P51813 1-675): T2 sequence (P51813 1-675)
Procedure: as §1

[8] = 1.5-fold molar excess of inhibitor, 30 min
[9] = 1.5-fold molar excess of inhibitor, 60 min
[10] = 1.5-fold molar excess of inhibitor, 120 min
[11] = 1.5-fold molar excess of inhibitor, 240 min

SMILES: CCC(=O)Nc1cccc(-c2c[nH]c3ncccc23)c1 [Compound 9b, N-(3-(1H-pyrrolo[2,3-b]pyridin-3-yl)phenyl)propionamide]
- JAK3 IC50 of nonreactive analogs (not shown) [1]: micromolar range
- IC50 [2]: > 10000 nM
- IC50 [3]: 9220 ± 3700 nM
- native (unmodified) BMX fraction, 30 min [4, 8]: 100%
- native (unmodified) BMX fraction, 60 min [4, 9]: 100%
- native (unmodified) BMX fraction, 120 min [4, 10]: 100%
- native (unmodified) BMX fraction, 240 min [4, 11]: 100%
- covalent labeling of BMX (in words) [4]: no modification was detectable

SMILES: c1ccc(-c2c[nH]c3ncccc23)cc1 [Compound 9c, 3-phenyl-1H-pyrrolo[2,3-b]pyridine]
- JAK3 IC50 of nonreactive analogs (not shown) [1]: micromolar range

SMILES: CCC(=O)Nc1cccc(-c2c[nH]c3ncc(C(N)=O)cc23)c1 [Compound 10b, 3-(3-propionamidophenyl)-1H-pyrrolo[2,3-b]pyridine-5-carboxamide]
- JAK3 IC50 of nonreactive analogs (not shown) [1]: micromolar range
- IC50 [2]: > 10000 nM
- IC50 [3]: > 10000 nM
- native (unmodified) BMX fraction, 30 min [4, 8]: 100%
- native (unmodified) BMX fraction, 60 min [4, 9]: 100%
- native (unmodified) BMX fraction, 120 min [4, 10]: 100%
- native (unmodified) BMX fraction, 240 min [4, 11]: 100%
- covalent labeling of BMX (in words) [4]: no modification was detectable

SMILES: NC(=O)c1cnc2[nH]cc(-c3ccccc3)c2c1 [Compound 10c, 3-phenyl-1H-pyrrolo[2,3-b]pyridine-5-carboxamide]
- JAK3 IC50 of nonreactive analogs (not shown) [1]: micromolar range

SMILES: C=CC(=O)Nc1cccc(-c2c[nH]c3ncc(C(=O)NC)cc23)c1 [Compound 11c, 3-(3-acrylamidophenyl)-N-methyl-1H-pyrrolo[2,3-b]pyridine-5-carboxamide]
- ΔTm at 10 µM [5]: 7.84 ± 0.04 °C
- ΔTm at 10 µM [6]: 10.3 ± 0.37 °C

SMILES: C=CC(=O)Nc1cccc(-c2c[nH]c3ncc(C(=O)NCC)cc23)c1 [Compound 11d, 3-(3-acrylamidophenyl)-N-ethyl-1H-pyrrolo[2,3-b]pyridine-5-carboxamide]
- ΔTm at 10 µM [5]: 7.35 ± 0.19 °C
- ΔTm at 10 µM [6]: 10.3 ± 0.26 °C

SMILES: C=CC(=O)Nc1cccc(-c2c[nH]c3ncc(C(=O)NCC4CC4)cc23)c1 [Compound 11e, 3-(3-acrylamidophenyl)-N-(cyclopropylmethyl)-1H-pyrrolo[2,3-b]pyridine-5-carboxamide]
- ΔTm at 10 µM [5]: 6.94 ± 0.07 °C
- ΔTm at 10 µM [6]: 9.64 ± 0.28 °C

SMILES: C=CC(=O)Nc1cccc(-c2c[nH]c3ncc(C(=O)NCC4CCCCC4)cc23)c1 [Compound 11f, 3-(3-acrylamidophenyl)-N-(cyclohexylmethyl)-1H-pyrrolo[2,3-b]pyridine-5-carboxamide]
- ΔTm at 10 µM [5]: 3.68 ± 0.13 °C
- ΔTm at 10 µM [6]: 5.54 ± 0.82 °C

SMILES: C=CC(=O)Nc1cccc(-c2c[nH]c3ncc(C(=O)NCc4ccccc4)cc23)c1 [Compound 11g, 3-(3-acrylamidophenyl)-N-benzyl-1H-pyrrolo[2,3-b]pyridine-5-carboxamide]
- ΔTm at 10 µM [5]: 6.84 ± 0.23 °C
- ΔTm at 10 µM [6]: 8.29 ± 1.26 °C

Continued, values first:

- IC50 [7]: 4 nM
- IC50 ([1]; radiometric HotSpot, five-dose singlicate, [ATP] = 10 μM): 1080 nM
- ΔTm at 10 µM [5]: 10.75 ± 0.09 °C
- ΔTm at 10 µM [6]: 9.93 ± 0.12 °C
SMILES: C=CC(=O)Nc1cccc(-c2c[nH]c3ncc(NC(=O)c4ccco4)cc23)c1 [Compound 12d, N-(3-(3-acrylamidophenyl)-1H-pyrrolo[2,3-b]pyridin-5-yl)furan-2-carboxamide]

- ΔTm at 10 µM [5]: 11.37 ± 0.03 °C
- ΔTm at 10 µM [6]: 10.9 ± 0.95 °C
SMILES: C=CC(=O)Nc1cccc(-c2c[nH]c3ncc(NC(=O)c4ccccc4)cc23)c1 [Compound 12e, N-(3-(3-acrylamidophenyl)-1H-pyrrolo[2,3-b]pyridin-5-yl)benzamide]

- ΔTm at 10 µM [5]: 10.6 ± 0.12 °C
- ΔTm at 10 µM [6]: 13.4 ± 0.43 °C
SMILES: C=CC(=O)Nc1cccc(-c2c[nH]c3ncc(NC(C)=O)cc23)c1 [Compound 12f, N-(3-(5-acetamido-1H-pyrrolo[2,3-b]pyridin-3-yl)phenyl)acrylamide]

- ΔTm at 10 µM [5]: 11.9 °C
- ΔTm at 10 µM [6]: 12.1 °C
SMILES: C=CC(=O)Nc1cccc(-c2c[nH]c3ncc(NC(=O)Cc4ccccc4)cc23)c1 [Compound 12h, N-(3-(5-(2-phenylacetamido)-1H-pyrrolo[2,3-b]pyridin-3-yl)phenyl)acrylamide]

- IC50 [7]: 16 nM
- ΔTm at 10 µM [5]: 11.5 °C
- ΔTm at 10 µM [6]: 10.1 °C
- IC50 [2]: 17 ± 7 nM
- IC50 [3]: 37 ± 10 nM
- BMX covalent adduct fraction, 30 min [4, 8]: 100%
- BMX covalent adduct fraction, 60 min [4, 9]: 100%
- BMX covalent adduct fraction, 120 min [4, 10]: 100%
- BMX covalent adduct fraction, 240 min [4, 11]: 100%
- covalent labeling of BMX (in words) [4]: complete labeling
SMILES: C=CC(=O)Nc1cccc(-c2c[nH]c3ncc(NC(=O)Cc4cccs4)cc23)c1 [Compound 12i, N-(3-(5-(2-(thiophen-2-yl)acetamido)-1H-pyrrolo[2,3-b]pyridin-3-yl)phenyl)acrylamide]
